Experimental data from patent publication US20230074545A1, “TREATMENT OF CANCER WITH CDK12/13 INHIBITORS” (Kinnate Biopharma Inc., priority 2019, published 2023).

How the values were obtained:
Assay in all cases: Radiometric kinase panel
Type in all cases: biochemical
[1] = target: T1, RPS6KA2 (Homo sapiens, UniProt Q15349)
T1 construct: either as full-length or enzymatically active fragments; purchased ProQinase GmbH (Reaction Biology); host or cells: Sf9 insect cells or E. coli
How it was run: (§1)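 Activity was measured radiometrically from [gamma-33P]-ATP incorporation into substrate. The kinases were recombinant human GST- or His-tagged proteins, full-length or active fragments, expressed in Sf9 or E. coli. Compound in 10% DMSO was added before the enzyme/substrate mix, which started the reaction.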

[2] = target: T2, DYRK3 (Homo sapiens, UniProt O43781)
T2 construct: either as full-length or enzymatically active fragments; purchased ProQinase GmbH (Reaction Biology)
How it was run: as §1

[3] = target: T3, MASTL (Homo sapiens, UniProt Q96GX5)
T3 construct: either as full-length or enzymatically active fragments; purchased ProQinase GmbH (Reaction Biology); host or cells: Sf9 insect cells or E. coli (not specified per kinase)
How it was run: as §1

[4] = target: T4, PKCzeta (Homo sapiens, UniProt Q05513)
T4 construct: either as full-length or enzymatically active fragments; purchased ProQinase GmbH (Reaction Biology)
How it was run: as §1

[5] = target: T5, CDK2/CycE1 (Homo sapiens, UniProt P24941)
T5 construct: either as full-length or enzymatically active fragments; purchased ProQinase GmbH (Reaction Biology); host or cells: Sf9 insect cells or E. coli (not specified per kinase)
How it was run: as §1

[6] = target: T6, ULK2 (Homo sapiens, UniProt Q8IYT8)
T6 construct: either as full-length or enzymatically active fragments; purchased ProQinase GmbH (Reaction Biology)
How it was run: as §1

[7] = target: T7, AKT2 (Homo sapiens, UniProt P31751)
T7 construct: either as full-length or enzymatically active fragments; purchased ProQinase GmbH (Reaction Biology); host or cells: Sf9 insect cells or E. coli (not specified per kinase)
How it was run: as §1

[8] = target: T8, LRRK2 (Homo sapiens, UniProt Q5S007)
T8 construct: either as full-length or enzymatically active fragments; purchased ProQinase GmbH (Reaction Biology); host or cells: Sf9 insect cells or E. coli
T8 sequence (Q5S007 whole entry, the tested form may be a part): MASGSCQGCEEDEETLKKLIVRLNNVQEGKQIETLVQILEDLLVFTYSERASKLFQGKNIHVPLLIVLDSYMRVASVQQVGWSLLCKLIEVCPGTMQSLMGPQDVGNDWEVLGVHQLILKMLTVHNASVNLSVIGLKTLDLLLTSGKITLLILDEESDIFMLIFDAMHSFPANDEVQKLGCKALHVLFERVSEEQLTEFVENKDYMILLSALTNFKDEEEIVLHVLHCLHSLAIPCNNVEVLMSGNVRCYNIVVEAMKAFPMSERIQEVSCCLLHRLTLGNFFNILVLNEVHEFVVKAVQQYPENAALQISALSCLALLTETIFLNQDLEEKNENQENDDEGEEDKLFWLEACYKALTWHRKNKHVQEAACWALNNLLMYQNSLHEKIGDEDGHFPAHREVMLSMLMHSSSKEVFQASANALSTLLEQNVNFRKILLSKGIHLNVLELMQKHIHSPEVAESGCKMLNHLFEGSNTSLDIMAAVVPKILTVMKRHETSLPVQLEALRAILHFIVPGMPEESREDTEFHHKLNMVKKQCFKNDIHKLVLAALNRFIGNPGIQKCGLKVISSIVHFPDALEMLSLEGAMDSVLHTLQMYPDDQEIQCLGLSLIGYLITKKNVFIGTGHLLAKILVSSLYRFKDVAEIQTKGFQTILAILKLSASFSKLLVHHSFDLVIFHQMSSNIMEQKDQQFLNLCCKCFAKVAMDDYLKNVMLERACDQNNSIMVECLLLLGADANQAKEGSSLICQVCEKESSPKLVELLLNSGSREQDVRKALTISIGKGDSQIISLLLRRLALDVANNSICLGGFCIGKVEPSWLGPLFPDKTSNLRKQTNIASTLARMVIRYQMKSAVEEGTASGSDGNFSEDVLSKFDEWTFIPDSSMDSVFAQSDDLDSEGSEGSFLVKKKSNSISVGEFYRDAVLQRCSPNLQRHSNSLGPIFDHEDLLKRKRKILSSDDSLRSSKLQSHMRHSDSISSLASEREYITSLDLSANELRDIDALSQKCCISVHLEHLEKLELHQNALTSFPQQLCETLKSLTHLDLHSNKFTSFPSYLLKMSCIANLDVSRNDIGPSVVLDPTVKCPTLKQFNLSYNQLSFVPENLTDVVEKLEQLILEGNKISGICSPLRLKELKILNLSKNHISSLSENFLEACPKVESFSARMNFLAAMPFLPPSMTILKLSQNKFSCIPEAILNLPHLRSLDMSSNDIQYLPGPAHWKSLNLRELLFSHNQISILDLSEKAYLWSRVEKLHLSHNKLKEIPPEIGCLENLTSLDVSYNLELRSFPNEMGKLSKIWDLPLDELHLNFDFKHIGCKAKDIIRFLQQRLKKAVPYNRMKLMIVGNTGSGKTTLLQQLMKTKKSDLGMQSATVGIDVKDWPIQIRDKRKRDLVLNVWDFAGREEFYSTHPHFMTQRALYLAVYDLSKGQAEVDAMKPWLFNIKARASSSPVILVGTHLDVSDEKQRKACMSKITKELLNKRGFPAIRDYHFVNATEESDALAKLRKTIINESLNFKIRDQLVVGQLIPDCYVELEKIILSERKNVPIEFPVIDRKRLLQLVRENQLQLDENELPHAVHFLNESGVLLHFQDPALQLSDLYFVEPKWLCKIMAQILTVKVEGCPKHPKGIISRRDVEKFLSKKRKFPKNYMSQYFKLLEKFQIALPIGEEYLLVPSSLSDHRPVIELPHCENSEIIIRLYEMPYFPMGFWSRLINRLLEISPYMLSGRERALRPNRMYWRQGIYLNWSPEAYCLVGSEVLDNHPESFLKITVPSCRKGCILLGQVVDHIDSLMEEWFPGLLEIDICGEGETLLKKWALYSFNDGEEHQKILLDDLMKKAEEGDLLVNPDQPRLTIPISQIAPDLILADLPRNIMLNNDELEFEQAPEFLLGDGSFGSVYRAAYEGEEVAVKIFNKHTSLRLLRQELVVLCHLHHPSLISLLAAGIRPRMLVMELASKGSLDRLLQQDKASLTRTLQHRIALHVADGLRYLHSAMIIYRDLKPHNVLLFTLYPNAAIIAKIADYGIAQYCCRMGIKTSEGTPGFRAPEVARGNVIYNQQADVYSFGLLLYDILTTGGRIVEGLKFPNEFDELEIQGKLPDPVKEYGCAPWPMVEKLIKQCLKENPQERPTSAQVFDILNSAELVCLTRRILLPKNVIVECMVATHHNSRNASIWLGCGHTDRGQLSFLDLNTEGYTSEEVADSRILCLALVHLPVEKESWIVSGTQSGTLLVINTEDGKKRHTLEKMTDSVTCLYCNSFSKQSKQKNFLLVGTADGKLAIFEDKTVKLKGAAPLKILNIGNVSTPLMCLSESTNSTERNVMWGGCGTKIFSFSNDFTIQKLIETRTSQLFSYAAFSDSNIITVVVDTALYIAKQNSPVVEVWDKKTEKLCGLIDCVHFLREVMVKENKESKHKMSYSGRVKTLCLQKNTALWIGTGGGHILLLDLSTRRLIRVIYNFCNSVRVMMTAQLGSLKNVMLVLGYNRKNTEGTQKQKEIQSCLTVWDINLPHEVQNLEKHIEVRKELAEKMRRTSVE
How it was run: as §1

[9] = target: T9, ROCK2 (Homo sapiens, UniProt O75116)
T9 construct: either as full-length or enzymatically active fragments; purchased ProQinase GmbH (Reaction Biology)
T9 sequence (O75116 whole entry, the tested form may be a part): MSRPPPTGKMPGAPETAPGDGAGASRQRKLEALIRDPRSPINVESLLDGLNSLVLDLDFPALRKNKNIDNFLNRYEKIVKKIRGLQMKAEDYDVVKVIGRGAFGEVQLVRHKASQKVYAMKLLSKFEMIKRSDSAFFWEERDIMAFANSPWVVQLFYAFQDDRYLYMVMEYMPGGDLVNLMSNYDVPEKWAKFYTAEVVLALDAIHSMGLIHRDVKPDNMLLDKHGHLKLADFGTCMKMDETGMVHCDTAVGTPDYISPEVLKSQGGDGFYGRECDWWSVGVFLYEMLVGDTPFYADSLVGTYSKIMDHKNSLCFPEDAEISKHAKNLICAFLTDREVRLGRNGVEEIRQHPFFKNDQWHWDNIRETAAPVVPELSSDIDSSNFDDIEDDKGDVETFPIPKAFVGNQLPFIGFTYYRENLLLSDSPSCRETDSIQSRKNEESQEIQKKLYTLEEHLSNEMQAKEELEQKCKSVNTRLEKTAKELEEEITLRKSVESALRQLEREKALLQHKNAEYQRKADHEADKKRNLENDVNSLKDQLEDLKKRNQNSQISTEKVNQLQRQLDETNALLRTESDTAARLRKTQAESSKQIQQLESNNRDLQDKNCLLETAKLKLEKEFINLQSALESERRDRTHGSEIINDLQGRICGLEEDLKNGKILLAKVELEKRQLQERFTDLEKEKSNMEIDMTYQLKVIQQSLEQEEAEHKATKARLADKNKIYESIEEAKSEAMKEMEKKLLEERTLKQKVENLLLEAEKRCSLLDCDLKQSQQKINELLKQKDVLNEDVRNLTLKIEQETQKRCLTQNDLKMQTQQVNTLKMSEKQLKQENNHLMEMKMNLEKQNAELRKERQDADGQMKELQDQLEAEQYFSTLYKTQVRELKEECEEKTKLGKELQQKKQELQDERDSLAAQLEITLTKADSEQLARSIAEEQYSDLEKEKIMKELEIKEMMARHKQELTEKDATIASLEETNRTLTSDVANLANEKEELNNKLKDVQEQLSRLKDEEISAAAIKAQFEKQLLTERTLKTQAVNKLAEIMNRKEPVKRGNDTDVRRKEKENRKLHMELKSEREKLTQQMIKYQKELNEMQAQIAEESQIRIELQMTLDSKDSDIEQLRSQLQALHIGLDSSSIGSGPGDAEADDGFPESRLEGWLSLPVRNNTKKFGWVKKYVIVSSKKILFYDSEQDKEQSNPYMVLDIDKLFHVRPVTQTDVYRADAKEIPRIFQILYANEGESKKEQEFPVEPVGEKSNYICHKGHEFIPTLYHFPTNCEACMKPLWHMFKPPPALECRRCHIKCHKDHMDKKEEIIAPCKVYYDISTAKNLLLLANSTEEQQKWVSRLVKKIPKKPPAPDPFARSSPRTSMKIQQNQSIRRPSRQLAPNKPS
How it was run: as §1

[10] = target: T10, GRK6 (Homo sapiens, UniProt P43250)
T10 construct: purchased ProQinase GmbH (Reaction Biology)
T10 sequence (P43250 whole entry): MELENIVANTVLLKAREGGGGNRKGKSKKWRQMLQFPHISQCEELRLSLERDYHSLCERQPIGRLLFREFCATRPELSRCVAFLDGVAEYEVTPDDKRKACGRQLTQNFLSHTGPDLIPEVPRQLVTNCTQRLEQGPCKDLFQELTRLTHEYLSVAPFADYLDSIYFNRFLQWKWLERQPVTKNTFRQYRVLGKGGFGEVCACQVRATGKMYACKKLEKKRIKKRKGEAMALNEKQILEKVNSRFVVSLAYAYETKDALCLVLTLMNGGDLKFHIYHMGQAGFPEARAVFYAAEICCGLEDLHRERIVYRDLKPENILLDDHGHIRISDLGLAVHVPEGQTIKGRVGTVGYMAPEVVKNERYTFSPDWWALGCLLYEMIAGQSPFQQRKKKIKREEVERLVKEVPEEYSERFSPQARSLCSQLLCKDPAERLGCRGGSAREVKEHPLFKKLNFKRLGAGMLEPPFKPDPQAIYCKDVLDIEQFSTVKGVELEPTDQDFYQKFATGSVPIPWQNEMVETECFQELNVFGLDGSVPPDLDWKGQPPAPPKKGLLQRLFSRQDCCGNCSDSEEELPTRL
How it was run: as §1

[11] = target: T11, SNK (Homo sapiens, UniProt Q9NYY3)
T11 construct: either as full-length or enzymatically active fragments; purchased ProQinase GmbH (Reaction Biology); host or cells: Sf9 insect cells or E. coli (not specified per kinase)
How it was run: as §1

[12] = target: T12, ERBB4 (Homo sapiens, UniProt Q15303)
T12 construct: either as full-length or enzymatically active fragments; purchased ProQinase GmbH (Reaction Biology); host or cells: Sf9 insect cells or E. coli (not specified per kinase)
How it was run: as §1

[13] = target: T13, LCK (Homo sapiens, UniProt P06239)
T13 construct: either as full-length or enzymatically active fragments; purchased ProQinase GmbH (Reaction Biology)
How it was run: as §1

[14] = target: T14, PRKX (Homo sapiens, UniProt P51817)
T14 construct: either as full-length or enzymatically active fragments; purchased ProQinase GmbH (Reaction Biology)
How it was run: as §1

[15] = target: T15, PKMzeta (Homo sapiens, UniProt Q05513)
T15 construct: either as full-length or enzymatically active fragments; purchased ProQinase GmbH (Reaction Biology); host or cells: Sf9 insect cells or E. coli
How it was run: as §1

[16] = target: T16, NEK6 (Homo sapiens, UniProt Q9HC98)
T16 construct: either as full-length or enzymatically active fragments; purchased ProQinase GmbH (Reaction Biology)
How it was run: as §1

[17] = target: T17, MAPKAPK5 (Homo sapiens, UniProt Q8IW41)
T17 construct: purchased ProQinase GmbH (Reaction Biology)
How it was run: as §1

[18] = target: T18, VRK2 (Homo sapiens, UniProt Q86Y07)
T18 construct: either as full-length or enzymatically active fragments; purchased ProQinase GmbH (Reaction Biology); host or cells: Sf9 insect cells or E. coli
T18 sequence (Q86Y07 whole entry, the tested form may be a part): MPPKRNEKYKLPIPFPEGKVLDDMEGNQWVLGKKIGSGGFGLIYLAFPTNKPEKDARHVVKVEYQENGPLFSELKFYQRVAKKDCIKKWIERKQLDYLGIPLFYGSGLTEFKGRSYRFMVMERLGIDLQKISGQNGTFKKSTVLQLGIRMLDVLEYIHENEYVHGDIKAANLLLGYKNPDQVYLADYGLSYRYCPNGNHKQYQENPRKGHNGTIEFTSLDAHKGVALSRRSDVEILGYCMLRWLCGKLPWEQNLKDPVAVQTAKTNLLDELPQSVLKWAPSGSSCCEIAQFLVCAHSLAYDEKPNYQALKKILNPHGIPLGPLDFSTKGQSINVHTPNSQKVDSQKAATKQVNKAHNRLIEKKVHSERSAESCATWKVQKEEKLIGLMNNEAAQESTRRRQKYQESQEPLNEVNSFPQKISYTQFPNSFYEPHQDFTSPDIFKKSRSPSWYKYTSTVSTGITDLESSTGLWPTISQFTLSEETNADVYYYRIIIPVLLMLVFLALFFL
How it was run: as §1

[19] = target: T19, STK39 (Homo sapiens, UniProt Q9UEW8)
T19 construct: either as full-length or enzymatically active fragments; purchased ProQinase GmbH (Reaction Biology)
How it was run: as §1

[20] = target: T20, KIT (Homo sapiens, UniProt P10721)
T20 construct: either as full-length or enzymatically active fragments; purchased ProQinase GmbH (Reaction Biology)
How it was run: as §1

[21] = target: T21, TYRO3 (Homo sapiens, UniProt Q06418)
T21 construct: either as full-length or enzymatically active fragments; purchased ProQinase GmbH (Reaction Biology)
How it was run: as §1

[22] = target: T22, DCAMKL2 (Homo sapiens, UniProt Q8N568)
T22 construct: purchased ProQinase GmbH (Reaction Biology); host or cells: Sf9 insect cells or E. coli (not specified per kinase)
How it was run: as §1

[23] = target: T23, RET (Homo sapiens, UniProt P07949)
T23 construct: either as full-length or enzymatically active fragments; purchased ProQinase GmbH (Reaction Biology)
How it was run: as §1

[24] = target: T24, PKCepsilon (Homo sapiens, UniProt Q02156)
T24 construct: either as full-length or enzymatically active fragments; purchased ProQinase GmbH (Reaction Biology); host or cells: Sf9 insect cells or E. coli
How it was run: as §1

[25] = target: T25, ABL2 (Homo sapiens, UniProt P42684)
T25 construct: purchased ProQinase GmbH (Reaction Biology)
How it was run: as §1

[26] = target: T26, CDK16/CycY (Homo sapiens, UniProt Q00536)
T26 construct: either as full-length or enzymatically active fragments; purchased ProQinase GmbH (Reaction Biology)
How it was run: as §1

[27] = target: T27, CLK3 (Homo sapiens, UniProt P49761)
T27 construct: either as full-length or enzymatically active fragments; purchased ProQinase GmbH (Reaction Biology)
How it was run: as §1

[28] = target: T28, STK17A (Homo sapiens, UniProt Q9UEE5)
T28 construct: either as full-length or enzymatically active fragments; purchased ProQinase GmbH (Reaction Biology)
How it was run: as §1

[29] = target: T29, CDK19/CycC (Homo sapiens, UniProt Q9BWU1)
T29 construct: either as full-length or enzymatically active fragments; purchased ProQinase GmbH (Reaction Biology); host or cells: Sf9 insect cells or E. coli (not specified per kinase)
How it was run: as §1

[30] = target: T30, MKNK1 (Homo sapiens, UniProt Q9BUB5)
T30 construct: purchased ProQinase GmbH (Reaction Biology)
How it was run: as §1

[31] = target: T31, TLK1 (Homo sapiens, UniProt Q9UKI8)
T31 construct: purchased ProQinase GmbH (Reaction Biology)
How it was run: as §1

SMILES: C=CC(=O)Nc1ccc(C(=O)N2CC[C@@H](Nc3ncc(C#N)cn3)C2)cc1 [Compound 4, (R)-N-(4-(3-((5-cyanopyrimidin-2-yl)amino)pyrrolidine-1-carbonyl)phenyl)acrylamide]
- inhibition at 1 µM [1]: 12%
- inhibition at 1 µM [2]: -3%
- inhibition at 1 µM [3]: 11%
- inhibition at 1 µM [4]: -3%
- inhibition at 1 µM [5]: 9%
- inhibition at 1 µM [6]: 3%
- inhibition at 1 µM [7]: 11%
- inhibition at 1 µM [8]: -14%
- inhibition at 1 µM [9]: 19%
- inhibition at 1 µM [10]: 0%
- inhibition at 1 µM [11]: 9%
- inhibition at 1 µM [12]: 9%
- inhibition at 1 µM [13]: -3%
- inhibition at 1 µM [14]: -7%
- inhibition at 1 µM [15]: 12%
- inhibition at 1 µM [16]: 4%
- inhibition at 1 µM [17]: -1%
- inhibition at 1 µM [18]: -16%
- inhibition at 1 µM [19]: 6%
- inhibition at 1 µM [20]: -4%
- inhibition at 1 µM [21]: -3%
- inhibition at 1 µM [22]: 0%
- inhibition at 1 µM [23]: 5%
- inhibition at 1 µM [24]: 15%
- inhibition at 1 µM [25]: -1%
- inhibition at 1 µM [26]: 17%
- inhibition at 1 µM [27]: -9%
- inhibition at 1 µM [28]: -4%
- inhibition at 1 µM [29]: 10%
- inhibition at 1 µM [30]: -2%
- inhibition at 1 µM [31]: -1%
